Data published in patent US10188693B2, “Methods for treatment of atherosclerosis” (Stealth BioTherapeutics Corp, priority 2012, dated 2019).
Values joined by “and” are separate entries in the source; they are usually repeats but may differ in a detail not shown here. Equal entries are not always repeated. “Also recorded” adds a separate entry of the source.

How the values were obtained:
[1] = test system: Apoprotein E deficient mice; assay: En face analysis of atherosclerotic lesions of the thoracic aorta (Sudan IV, % of aortic surface covered by lipid); format: in vivo; conditions: 12 weeks
Text: Apoprotein E deficient mice (Jackson Laboratories, 600 Main Street, Bar Harbor, Me.) were used in this study. The mice were male, 7-8 weeks of age, and between 18-20 g in weight. An initial total cholesterol measurement was made on 30 mice, and the mice were grouped into two groups of 15 to match the total cholesterol measurements. Both groups were fed a “western diet” (40 kcal % butterfat, 0.15% [wt/wt] cholesterol, Harlan Teklad diet TD-88137). Starting at t=0, the control group of 15 mice received vehicle only (phosphate buffered saline at pH 7.4), while the test group of 15 mice received aromatic-cationic peptide reconstituted in phosphate buffered saline. Body weights of the mice were recorded weekly, and mortality checks were performed daily.
The aromatic-cationic peptide D-Arg-2′6′-Dmt-Lys-Phe-NH2 (sterile lyophilized powder, reconstituted in phosphate buffered saline) was tested. For the 12-week study, test mice received a single, daily dose of the peptide, subcutaneously at 1 mg/kg. Control mice received a single daily dose of vehicle.
Histopathology/Histomorphometery: Following the 12 week treatment, mice were euthanized within 48 hours after the last dose by CO2 asphyxiation and the vascular tree was perfused with 5 mL of phosphate buffered saline (pH 7.4). The aorta and aortic sinus were removed for examination. Thoracic aorta were isolated, trimmed of fat, and fixed in formalin for 48-72 hours before analysis. For en face analysis, aortas were laid out and pinned on black matrix for photography, and stained with Sudan IV. Vessels were imaged for surface involvement using a Nikon computerized image analysis system and the percent of the aortic surface area covered by lipid was calculated. Two determinations were done for each image (Quan 1 and Quan 2), and the average was computed. The data were then computed by group and statistically analyzed. Following staining and morphometric analysis, total lipids were extracted from the aortas using the Bligh-Dyer method. WAKO Diagnostics kits (WAKO Diagnostics, Inc., 1600 Bellwood Road Richmond, Va. 23237-1326) were then used to evaluate total cholesterol, free cholesterol, and cholesterol ester. Cholesterol leves were quantitate nad expressed relative to protein levels. Values are expressed as μg lipid per mg protein (see e.g., FIG. 1).

[2] = test system: Human skin fibroblasts; assay: Coenzyme Q10 levels in fibroblasts treated with peptide; format: cell-based; conditions: 10 nM peptide, 16-24 hours or 5 days, versus saline treated fibroblasts; listed as aromatic-cationic peptide
Protocol: Fibroblasts were treated with an aromatic-cationic peptide of the present disclosure, and levels of coenzyme Q10 were evaluated.
Human skin fibroblasts from normal subjects were incubated under standard tissue culture medium containing high glucose levels to support anaerobic conditions. At approximately 90% confluence, cells were incubated in the presence of 10 nM D-Arg-2′6′-Dmt-Lys-Phe-NH2 for a period of either one day (24 h) or five days as shown in Table 11 below. The culture medium was not changed during the incubation period. Cells were harvested and the cellular level of CoQ was determined using methods known in the art. Data represents the average n=3-6.

[3] = individual mouse, 1 mg/kg subcutaneously daily, western diet, 1 mg/kg

In the case of D-Arg-2′6′-Dmt-Lys-Phe-NH2, the “Ave (average % of the surface of the aortas showing lesions)” value ([1]; group average of 15 test mice, 1 mg/kg subcutaneously daily) is reported as 5.328%, the “Ave. % of Lesion” value ([1]; individual mouse, average of Quan 1 and Quan 2, 1 mg/kg subcutaneously daily, 1 mg/kg) is reported as 2.615% and 0.892% and 9.027% and 3.019% and 7.009% and 4.833% and 1.996% and 1.205% and 9.948% and 2.763% and 6.814% and 4.734% and 0.834% and 11.239% and 12.990% and the “Quan 1 (first determination of % of the aortic surface covered by lipid)” value [1, 3] is reported as 2.562% and 0.914% and 8.769% and 2.832% and 7.137% and 5.198% and 2.128% and 1.388% and 10.000% and 2.990% and 7.091% and 4.700% and 0.775% and 11.589% and 13.857%. For the same substance, the “Quan 2 (second determination of % of the aortic surface covered by lipid)” value [1, 3] was 2.667% and 0.870% and 9.284% and 3.205% and 6.881% and 4.468% and 1.863% and 1.021% and 9.895% and 2.536% and 6.536% and 4.768% and 0.892% and 10.888% and 12.122%, the “atherosclerotic lesions in the aorta (% lesion area), in words” value ([1]; treated versus vehicle, listed as aromatic-cationic peptide) was “reduces; also recorded: lower” and the “coenzyme Q10 levels in fibroblast cells, in words” value [2] was “increased”.
